Here are results for eight compounds from ChEMBL document CHEMBL5316301, “Dual Nicotinamide Phosphoribosyltransferase (NAMPT) and Indoleamine 2,3-Dioxygenase 1 (IDO1) Inhibitors for the Treatment of Drug-Resistant Nonsmall-Cell Lung Cancer” (J Med Chem, 2023).

The source made the active and inactive calls. No cut-off for these calls is given here.

The target in experiment [1] is T1, Indoleamine 2,3-dioxygenase 1 (Homo sapiens, UniProt P14902). The experiment is described as follows: Inhibition of human recombinant IDO1 assessed as reduction in N-formylkynurenine formation using L-tryptophan as substrate preincubated for 30 mins followed by substrate addition and measured after 10 mins by SpectraMax microplate reader analysis.
Experiment [2] concerns the target T1, Indoleamine 2,3-dioxygenase 1. The experiment is described as follows: Inhibition of human recombinant IDO1 in human HeLa cells assessed as reduction in N-formylkynurenine formation using L-tryptophan as substrate preincubated for 24 hrs followed by substrate addition and measured after 30 mins. Format: cell-based.
Experiment [3] relates to A549. The experiment is described as follows: Antitumor activity against NAMPT inhibitor-resistant A549 cells xenografted in athymic nude mouse assessed as tumor growth inhibition at 2 mg/kg, iv bid measured on day 21 by caliper method. As to conditions: A549, 504 h, time 21 day, read-out: TGI. Format: functional, Homo sapiens.
Experiment [4] relates to A549. The experiment is described as follows: Antiproliferative activity against NAMPT inhibitor-resistant A549 cells assessed as reduction in cell viability measured for 48 hrs by CCK-8 assay. As to conditions: Homo sapiens. (Tetrazolium assays rely on reduction of a dye to a coloured formazan, in cell work by metabolically active cells.)
Experiment [5] has as its system A549. The experiment is described as follows: cells. Conditions: Homo sapiens, A549, 48 h.
Experiment [6] concerns A549. The experiment is described as follows: Antiproliferative activity against NAMPT inhibitor-resistant A549 cells assessed as reduction in cell viability measured for 48 hrs in presence of epacadostat by CCK-8 assay. Format: functional, cell-based. As to conditions: Homo sapiens, A549, 48 h.

T1 sequence (P14902 whole entry): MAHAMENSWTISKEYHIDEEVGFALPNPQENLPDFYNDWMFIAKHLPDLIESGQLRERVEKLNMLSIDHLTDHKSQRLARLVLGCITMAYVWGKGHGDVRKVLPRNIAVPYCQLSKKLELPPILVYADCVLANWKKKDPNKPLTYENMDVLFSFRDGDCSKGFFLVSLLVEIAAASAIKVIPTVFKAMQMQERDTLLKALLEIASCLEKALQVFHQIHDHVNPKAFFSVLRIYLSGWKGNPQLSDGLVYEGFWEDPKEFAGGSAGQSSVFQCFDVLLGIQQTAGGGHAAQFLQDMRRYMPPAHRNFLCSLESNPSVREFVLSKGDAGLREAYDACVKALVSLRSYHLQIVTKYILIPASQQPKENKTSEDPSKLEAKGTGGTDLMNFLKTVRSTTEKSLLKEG

As for `O=C(c1ccc2nccn2c1)N1CCC(CCNc2nonc2/C(=N/O)Nc2ccc(F)c(Br)c2)CC1`, the IC50 in experiment [1] was over 1 µM.
Take `O=C(NCCNc1nonc1/C(=N/O)Nc1ccc(F)c(Br)c1)c1ccc2nccn2c1`: the IC50 in experiment [1] and in experiment [2] was over 1 µM each time.
Consider `CC(=O)O[C@H]1C(=O)[C@@]2(C)[C@H]([C@H](OC(=O)c3ccccc3)[C@]3(O)C[C@H](OC(=O)[C@H](O)[C@@H](NC(=O)c4ccccc4)c4ccccc4)C(C)=C1C3(C)C)[C@]1(OC(C)=O)CO[C@@H]1C[C@@H]2O` [PACLITAXEL], for which, in the experiment on A549 [3], the inhibition in vivo at 2 mg/kg is 20.2%. The outcome with A549 [4] was Active.
Regarding `O=C(NCc1ccc(C(=O)N2CCC(CNc3nonc3/C(=N/O)Nc3ccc(F)c(Br)c3)CC2)cc1)c1ccc2nccn2c1`, the IC50 in experiment [1] is over 1 µM.
Consider `O=C(NCCCCCNc1nonc1/C(=N/O)Nc1ccc(F)c(Br)c1)c1ccc2nccn2c1`, for which the IC50 was 0.858 µM in experiment [1] and 0.67 µM in experiment [2].
`O=C(CCCCNc1nonc1/C(=N/O)Nc1ccc(F)c(Br)c1)Nc1ccc(CNC(=O)c2ccc3nccn3c2)cc1`: the IC50 was determined as 0.75 µM in experiment [1] and 0.649 µM in experiment [2].
For `O=C(NCCCNc1nonc1/C(=N/O)Nc1ccc(F)c(Br)c1)c1ccc2nccn2c1` the same measures were over 1 µM and over 1 µM.
Regarding `O=C(/C=C/c1cccnc1)NCCCCC1CCN(C(=O)c2ccccc2)CC1` [DAPORINAD], the IC50 in the experiment on A549 [5] came out at 52.1 µM; in the experiment on A549 [6] it was 34.5 µM.

A word on the IC50: it is the concentration at which inhibition is half-maximal.
